What was measured:
Keratin K14 = test: Keratinocyte marker Keratin K14 in human epidermal keratinocytes (Test Example 22); assay type: cell-based; details: for Keratin K14 induction with TLR4/MD2 added: plus TLR4/MD2 1 μg/ml; for cells with high expression of Keratin K14 (immunostaining intensity): stimulated as in Test Example 1
Method: (§1) Human epidermal keratinocytes were stimulated in the same manner as in Test Example 1, except for using the 4mer or the L3mer as the hyaluronic acid fragment, and further adding TLR4/MD2 to a final concentration of 1 μg/ml.
The cells in each well were stained with anti keratin K14 antibody, and the immunostaining intensity was measured with an Array Scan scanning device (made by Thermo Scientific). Keratin K14 is a marker of basal layer keratinocytes.

[1] = system: human oral epithelial cells (Ca9-22 cells); test: Hydrogen peroxide induced aging of human oral epithelial cells, MTS assay (Test Example 19); assay type: cell-based; details: hydrogen peroxide 1 μM 15 min, then 100 ng/ml for 3 hours
Method: It was investigated whether the process, in which mitochondrial function of human oral epithelial cells (Ca9-22 cells) declines when treated with hydrogen peroxide, is affected by treatment with the hyaluronic acid fragment. Specifically, the following test was performed.
Using a DMEM culture medium (made by Wako Pure Chemical Industries, Ltd.), human oral epithelial cells (Ca9-22 cells) were cultured by usual methods at 37° C. under 5% CO2. Hydrogen peroxide was added to the culture medium to a final concentration of 1 μM to bring about stimulation for a 15-minute period, and the culture broth was then transferred to DMEM culture medium containing no hyaluronic acid fragments; to DMEM culture medium containing hyaluronic acid fragment (L3mer) in a final concentration of 100 ng/ml; to DMEM culture medium containing hyaluronic acid fragment (4mer) in a final concentration of 100 ng/ml; or to DMEM culture medium containing 900 kDa hyaluronic acid in a final concentration of 100 ng/ml, and cultured for 3 hours.
(§2) After 3 hours had passed, an MTS assay was performed. On the basis of the action, in which MTS is converted to formazan by dehydrogenation in the mitochondria of the cell, OD 490 nm was measured to measure mitochondrial function.

liver of aged rat = test: Liver of aged rat preserved in organ preservation solution, microscopy and bleb count (Test Example 14); details: for sinusoidal constriction and appearance of blebs in liver tissue slice: 100 ng/ml in organ preservation solution, SD rats aged 24 months
Method: The effect of action of the hyaluronic acid fragment on the liver of aged rat was investigated. The following test solutions were prepared.
(Test Solutions) • Organ preservation solution (University of Wisconsin solution: the standard solution used for organ preservation) • The above organ preservation solution, into which hyaluronic acid fragment (4mer) was dissolved to a final concentration of 100 ng/ml • The above organ preservation solution, into which hyaluronic acid fragment (L3mer) was dissolved to a final concentration of 100 ng/ml • The above organ preservation solution, into which hyaluronic acid fragment (L3mer) was dissolved to a final concentration of 100 ng/ml, then dissolving TLR4/MD2 into the above organ preservation solution, to a final concentration of 10 μg/ml.
SD rats aged 24 months (aged rats) were injected with the test solutions from the hepatic portal, and after perfusion of 7.5 ml, were preserved for six hours in the same solution at 37° C. Slices were prepared from blocks prepared by freezing of the livers embedded in OCT compound, and were subjected to microscope examination.
Prior to preservation, distinct sinusoids could be observed. […] Blebs (bubbles) that appear in ischemic liver tissue arise as a result of an activation of Ca ion-dependent proteolytic enzymes and a disorder of the cytoskeletal system, in which lowered ATP levels due to ischemia lead to effusion of Ca ions from the mitochondria to the cellular cytoplasm. In the course of passing through these changes, the liver cells experience cell death. Such changes have been confirmed to occur in clinical conditions such as pharmaceutical toxicity, aging, and the like, and in concanavalin A-induced liver damage.

[2] = system: stem cells of human epidermal keratinocytes; test: Count of small dividing cells with high sirtuin protein expression, with or without TLR4/MD2 (Test Examples 4-6); assay type: cell-based; details: for sirtuin induction in stem cells upon addition of TLR4/MD2: 10 ng/ml fragment plus 1 g/ml of TLR4/MD2; for sirtuin protein expression in stem cells (count of small dividing cells with high sirtuin expression) vs negative control: 24 hours
Method: A test of sirtuin induction in human epidermal keratinocytes was conducted in the same manner as in Test Example 1.
The results are shown as average count within the observed visual field.
In the meantime, similar observations were made in relation to human epidermal keratinocytes cultured in a culture broth to which 10 ng/ml of hyaluronic acid fragment (4mer) and 1 g/ml of TLR4/MD2 (TLR4 (toll-like receptor 4) protein produced by genetic recombination techniques, made by R&D Systems Inc.) were added.
A test similar to Test Example 5 was carried out, using chemically synthesized three-unit size hyaluronic acid fragments (L3mer) in place of hyaluronic acid fragment (4mer).

[3] = system: human large intestine epithelial cells (HT29 cells); test: Hydrogen peroxide induced aging of human large intestine epithelial cells, MTS assay (Test Examples 16-18); assay type: cell-based; details: for suppression of cellular aging (MTS value, OD 490 nm): hydrogen peroxide 10 μM 15 min; for suppression of cellular aging with TLR4/MD2 added (MTS): hydrogen peroxide 10 μM, 100 ng/ml plus TLR4/MD2 10 μg/ml, 3 hours
Method: Human large intestine epithelial cells (HT29 cells) were experienced cellular aging (decline in mitochondrial activity due to injury, or a drop in the MTS value once cell death occurs) due to stimulation by the hydrogen peroxide when treated with hydrogen peroxide, and it was investigated whether this process is affected by treatment with the hyaluronic acid fragment. Specifically, the following test was performed.
Using a DMEM culture medium (made by Wako Pure Chemical Industries, Ltd.), human large intestine epithelial cells (HT29 cells) were cultured by usual methods at 37° C. under 5% CO2. Hydrogen peroxide was added to the culture medium to a final concentration of 10 μM to bring about stimulation for a 15-minute period, and the culture broth was then transferred to DMEM culture medium containing no hyaluronic acid fragments; to DMEM culture medium containing hyaluronic acid fragment (4mer) in a final concentration of 100 ng/ml; or to DMEM culture medium containing the hyaluronic acid fragment (4mer) plus TLR4/MD2 in a final concentration of 10 μg/ml, and cultured for 3 hours.
as §2
Using hyaluronic acid fragment (4mer), hyaluronic acid fragment (L4mer) and hyaluronic acid fragment (L3mer) as test substances, tests similar to those of Test Example 16 were performed, except that the culture time following transfer to the culture medium containing the test substance was one hour.
Tests similar to those of Test Example 16 were performed, except for using hyaluronic acid fragment (L4mer), and hyaluronic acid fragment (L3mer) as test substances.

filaggrin = test: Keratinocyte marker Filaggrin in human epidermal keratinocytes (Test Example 23); assay type: cell-based; details: for filaggrin induction with TLR4/MD2 added: plus TLR4/MD2 1 μg/ml; for cells with high expression of filaggrin (immunostaining intensity): stimulated as in Test Example 1
Method: as §1
The cells in each well were stained with the anti filaggrin antibody, and the immunostaining intensity was measured with an Array Scan scanning device (made by Thermo Scientific). Filaggrin, which is produced by granular layer keratinocytes, is a marker of mature keratinocytes.

[4] = then test substance for one hour

SMILES: CC(=O)NC1C(O[C@@H]2OC(C(=O)O)[C@@H](O)C(O)C2O)[C@H](O)C(CO)O[C@H]1O[C@@H]1C(C(=O)O)O[C@@H](OCCCN=[N+]=[N-])C(O)C1O (some centres unmarked) [L3mer]
- Keratin K14 induction with TLR4/MD2 added (Keratin K14): inhibited by addition of TLR4/MD2
- cells with high expression of Keratin K14 (immunostaining intensity) (Keratin K14): cells with high expression of Keratin K14 increased
- suppression of cellular aging (MTS, mitochondrial function) [1]: suppress cellular aging
- sinusoidal constriction and appearance of blebs in liver tissue slice (liver of aged rat; six hours at 37° C.): sinusoidal constriction and appearance of blebs were suppressed
- effect in suppressing the appearance of blebs with TLR4/MD2 added (bleb count) (liver of aged rat; 100 ng/ml plus TLR4/MD2 10 μg/ml): reduced by the addition of TLR4/MD2
- condition of liver tissue slice with TLR4/MD2 added (liver of aged rat; 100 ng/ml plus TLR4/MD2 10 μg/ml, six hours at 37° C.): numerous blebs (bubbles) appeared
- effect of suppressing the appearance of blebs (bleb count per unit surface area) (liver of aged rat; 100 ng/ml, comparison L3mer vs 4mer): higher with L3mer treatment than with 4mer treatment
- sirtuin induction in stem cells upon addition of TLR4/MD2 [2]: substantially completely inhibited
- sirtuin protein expression in stem cells (count of small dividing cells with high sirtuin expression) vs negative control ([2]; 10 ng/ml): give rise to sirtuin induction
- suppression of cellular aging (MTS value, OD 490 nm) ([3]; then 100 ng/ml for 3 hours): showed effect in suppressing cellular aging
- suppression of cellular aging (MTS value, OD 490 nm) [3, 4]: showed effect in suppressing cellular aging
- suppression of cellular aging with TLR4/MD2 added (MTS) [3]: inhibited by the addition of TLR4/MD2
- filaggrin induction with TLR4/MD2 added (filaggrin): inhibited by addition of TLR4/MD2
- cells with high expression of filaggrin (immunostaining intensity) (filaggrin): cells with high expression of filaggrin increased

SMILES: CC(=O)N[C@H]1[C@H](O[C@H]2[C@H](O)[C@@H](O)[C@H](O[C@H]3[C@H](O)[C@@H](CO)OC(O)[C@@H]3NC(C)=O)O[C@@H]2C(=O)O)O[C@H](CO)[C@@H](O)[C@@H]1O[C@@H]1O[C@H](C(=O)O)[C@@H](O)[C@H](O)[C@H]1O (some centres unmarked) [4mer, GlcA(-GlcNAc-GlcA)1-GlcNAc]
- Keratin K14 induction with TLR4/MD2 added (Keratin K14): inhibited by addition of TLR4/MD2
- cells with high expression of Keratin K14 (immunostaining intensity) (Keratin K14): cells with high expression of Keratin K14 increased
- suppression of cellular aging (MTS, mitochondrial function) [1]: suppress cellular aging
- sinusoidal constriction and appearance of blebs in liver tissue slice (liver of aged rat; six hours at 37° C.): sinusoidal constriction and appearance of blebs were suppressed
- sirtuin protein expression in stem cells (count of small dividing cells with high sirtuin expression) vs negative control ([2]; 0.01 ng/ml): markedly promoted
- sirtuin induction in stem cells upon addition of TLR4/MD2 [2]: completely inhibited
- sirtuin protein expression in stem cells (count of small dividing cells with high sirtuin expression) vs negative control ([2]; 10 ng/ml): markedly promoted
- suppression of cellular aging (MTS value, OD 490 nm) ([3]; then 100 ng/ml for 3 hours): suppressed cellular aging
- suppression of cellular aging (MTS value, OD 490 nm) [3, 4]: showed effect in suppressing cellular aging
- suppression of cellular aging with TLR4/MD2 added (MTS) [3]: inhibited by addition of TLR4/MD2
- filaggrin induction with TLR4/MD2 added (filaggrin): inhibited by addition of TLR4/MD2
- cells with high expression of filaggrin (immunostaining intensity) (filaggrin): cells with high expression of filaggrin increased

From patent publication US20150018305A1, “SIRTUIN INDUCER, TISSUE REPAIRING AGENT, HEPATOCYTE GROWTH FACTOR INDUCER, TISSUE HOMEOSTASIS MAINTENANCE AGENT, AND TLR4 AGONIST, HAVING HYALURONIC ACID FRAGMENT AS ACTIVE INGREDIENT” (HYALURONAN RESEARCH INSTITUTE, INC., priority 2012, published 2015)
